One assay relates to Calf thymus DNA. In words: Apparent binding constant to calf thymus DNA (CT-DNA). The conditions noted are these: Bos taurus. The class given is nucleic-acid assay.
The subject of the next assay is BGC-823. In words: In vitro antitumor activity against humanBGC-823 tumor cell line. The class given is functional, cell-based. To be noted: Homo sapiens.
Assay [1] is described as follows: In vitro antitumor activity against human PC-3MIE8 tumor cell line. The class given is functional.
Another assay deals with MDA-MB-435. In words: In vitro antitumor activity against human MDA-MB-435 tumor cell line. The assay is classed as functional, cell-based.
Another assay relates to Nucleic Acid. In words: Thermal denaturation alteration for calf thymus DNA (CT-DNA) binding to the compound was determined. To be noted: Bos taurus. The class given is functional.
The next assay deals with HL-60. In words: In vitro antitumor activity against humanHL-60 tumor cell line. The assay is classed as functional, cell-based. To be noted: Homo sapiens.

A word on the IC50: it is the concentration at which inhibition is half-maximal. A higher IC50 goes with lower potency. Usually ΔTm stands for the shift of the melting midpoint relative to a reference. `Cc1c(N)nc([C@H](CC(N)=O)NC[C@H](N)C(N)=O)nc1C(=O)N[C@H](C(=O)N[C@H](C)[C@@H](O)[C@H](C)C(=O)N[C@H](C(=O)NCCc1nc(-c2nc(C(=O)NCCCNCCCCNC(=O)[C@H](N)CC(C)C)cs2)cs1)[C@@H](C)O)[C@@H](O[C@@H]1O[C@@H](CO)[C@@H](O)[C@H](O)[C@@H]1O[C@H]1O[C@H](CO)[C@@H](O)[C@H](OC(N)=O)[C@@H]1O)c1c[nH]cn1`: in the assay with Calf thymus DNA, the Kb was found to be 283000. The IC50 with BGC-823 was determined as 730 nM; in assay [1] it was 1270 nM; in the assay on MDA-MB-435 it was 170 nM; with HL-60, 370 nM. Further, the ΔTm in the assay with Nucleic Acid is 1.5 °C.

For the molecule `Cc1c(N)nc([C@H](CC(N)=O)NC[C@H](N)C(N)=O)nc1C(=O)N[C@H](C(=O)N[C@H](C)[C@@H](O)[C@H](C)C(=O)N[C@H](C(=O)NCCc1nc(-c2nc(C(=O)NCCCNCCCCNC(=O)[C@H](CCCCN)NC(=O)[C@H](N)C(C)C)cs2)cs1)[C@@H](C)O)[C@@H](O[C@@H]1O[C@@H](CO)[C@@H](O)[C@H](O)[C@@H]1O[C@H]1O[C@H](CO)[C@@H](O)[C@H](OC(N)=O)[C@@H]1O)c1c[nH]cn1`, the Kb with Calf thymus DNA came to 408000. Further, the IC50 with BGC-823 amounted to 1170 nM; in assay [1], 1910 nM; in the assay with MDA-MB-435, 100 nM; in the assay with HL-60 it was 740 nM. In addition, the ΔTm with Nucleic Acid amounted to 5.9 °C.

In the case of `Cc1c(N)nc([C@H](CC(N)=O)NC[C@H](N)C(N)=O)nc1C(=O)N[C@H](C(=O)N[C@H](C)[C@@H](O)[C@H](C)C(=O)N[C@H](C(=O)NCCc1nc(-c2nc(C(=O)NCCCNCCCCNC(=O)[C@H](CC(C)C)NC(=O)[C@H](N)C(C)C)cs2)cs1)[C@@H](C)O)[C@@H](O[C@@H]1O[C@@H](CO)[C@@H](O)[C@H](O)[C@@H]1O[C@H]1O[C@H](CO)[C@@H](O)[C@H](OC(N)=O)[C@@H]1O)c1c[nH]cn1`, the Kb in the assay on Calf thymus DNA stood at 260000. Further, the IC50 in the assay with BGC-823 is 930 nM; in assay [1], 1180 nM; in the assay on MDA-MB-435 it was 90 nM; in the assay with HL-60 it was 270 nM. Besides, the ΔTm with Nucleic Acid was found to be 0.5 °C.

As to `Cc1c(N)nc([C@H](CC(N)=O)NC[C@H](N)C(N)=O)nc1C(=O)N[C@H](C(=O)N[C@H](C)[C@@H](O)[C@H](C)C(=O)N[C@H](C(=O)NCCc1nc(-c2nc(C(=O)NCCCNCCCCNC(=O)[C@H](N)CCCCN)cs2)cs1)[C@@H](C)O)[C@@H](O[C@@H]1O[C@@H](CO)[C@@H](O)[C@H](O)[C@@H]1O[C@H]1O[C@H](CO)[C@@H](O)[C@H](OC(N)=O)[C@@H]1O)c1c[nH]cn1`, the Kb with Calf thymus DNA stood at 559000. For the same molecule, the IC50 is 920 nM with BGC-823, 1080 nM in assay [1], 100 nM in the assay on MDA-MB-435 and 510 nM with HL-60. For the same molecule, the ΔTm in the assay with Nucleic Acid was determined as 8.4 °C.

`Cc1c(N)nc([C@H](CC(N)=O)NC[C@H](N)C(N)=O)nc1C(=O)N[C@H](C(=O)N[C@H](C)[C@@H](O)[C@H](C)C(=O)N[C@H](C(=O)NCCc1nc(-c2nc(C(=O)NCCCNCCCCNC(=O)[C@H](CCCCN)NC(=O)[C@@H](N)C(C)C)cs2)cs1)[C@@H](C)O)[C@@H](O[C@@H]1O[C@@H](CO)[C@@H](O)[C@H](O)[C@@H]1O[C@H]1O[C@H](CO)[C@@H](O)[C@H](OC(N)=O)[C@@H]1O)c1c[nH]cn1`: the Kb with Calf thymus DNA was determined as 463000. Further, the half-maximal inhibitory concentration (IC50) was determined as 1010 nM with BGC-823, 3320 nM in assay [1], 220 nM with MDA-MB-435 and 980 nM in the assay on HL-60. Also, the ΔTm with Nucleic Acid was found to be 7 °C.

For `Cc1c(N)nc([C@H](CC(N)=O)NC[C@H](N)C(N)=O)nc1C(=O)N[C@H](C(=O)N[C@H](C)[C@@H](O)[C@H](C)C(=O)N[C@H](C(=O)NCCc1nc(-c2nc(C(=O)NCCCNCCCCNC(=O)[C@H](CCCCN)NC(=O)[C@@H](CC(C)C)NC(=O)[C@@H](N)C(C)C)cs2)cs1)[C@@H](C)O)[C@@H](O[C@@H]1O[C@@H](CO)[C@@H](O)[C@H](O)[C@@H]1O[C@H]1O[C@H](CO)[C@@H](O)[C@H](OC(N)=O)[C@@H]1O)c1c[nH]cn1`, the Kb with Calf thymus DNA is 496000. The IC50 with BGC-823 is 600 nM; in assay [1], 1140 nM; in the assay on MDA-MB-435, 70 nM; in the assay with HL-60, 70 nM. Also, in the assay on Nucleic Acid, the ΔTm was determined as 4.7 °C.

As for `Cc1c(N)nc([C@H](CC(N)=O)NC[C@H](N)C(N)=O)nc1C(=O)N[C@H](C(=O)N[C@H](C)[C@@H](O)[C@H](C)C(=O)N[C@H](C(=O)NCCc1nc(-c2nc(C(=O)NCCCNCCCCNC(=O)[C@@H](N)C(C)C)cs2)cs1)[C@@H](C)O)[C@@H](O[C@@H]1O[C@@H](CO)[C@@H](O)[C@H](O)[C@@H]1O[C@H]1O[C@H](CO)[C@@H](O)[C@H](OC(N)=O)[C@@H]1O)c1c[nH]cn1`, in the assay with Calf thymus DNA, the Kb was 325000. In addition, the IC50 in the assay with BGC-823 turned out to be 1390 nM; in assay [1], 1830 nM; in the assay on MDA-MB-435 it was 130 nM; in the assay with HL-60 it was 660 nM. In the assay with Nucleic Acid, the ΔTm was found to be 1.9 °C.

Take `Cc1c(N)nc([C@H](CC(N)=O)NC[C@H](N)C(N)=O)nc1C(=O)N[C@H](C(=O)N[C@H](C)[C@@H](O)[C@H](C)C(=O)N[C@H](C(=O)NCCc1nc(-c2nc(C(=O)NCCCNCCCCNC(=O)[C@H](N)C(C)C)cs2)cs1)[C@@H](C)O)[C@@H](O[C@@H]1O[C@@H](CO)[C@@H](O)[C@H](O)[C@@H]1O[C@H]1O[C@H](CO)[C@@H](O)[C@H](OC(N)=O)[C@@H]1O)c1c[nH]cn1`: the Kb in the assay with Calf thymus DNA came out at 249000. Further, the IC50 was determined as 800 nM in the assay on BGC-823, 800 nM in assay [1], 130 nM in the assay with MDA-MB-435 and 310 nM in the assay on HL-60. In addition, the ΔTm in the assay on Nucleic Acid turned out to be 1.1 °C.

Regarding `Cc1c(N)nc([C@H](CC(N)=O)NC[C@H](N)C(N)=O)nc1C(=O)N[C@H](C(=O)N[C@H](C)[C@@H](O)[C@H](C)C(=O)N[C@H](C(=O)NCCc1nc(-c2nc(C(=O)NCCCNCCCCN)cs2)cs1)[C@@H](C)O)[C@@H](O[C@@H]1O[C@@H](CO)[C@@H](O)[C@@H](O)[C@@H]1O[C@H]1O[C@H](CO)[C@@H](O)[C@H](OC(N)=O)[C@@H]1O)c1c[nH]cn1`, the Kb with Calf thymus DNA turned out to be 457000. Also, the concentration for half-maximal inhibition (IC50) with BGC-823 is 1250 nM; in assay [1], 1480 nM; in the assay on MDA-MB-435 it was 1640 nM; in the assay on HL-60 it was 250 nM. For the same molecule, the ΔTm in the assay with Nucleic Acid was found to be 2.9 °C.

Take `Cc1c(N)nc([C@H](CC(N)=O)NC[C@H](N)C(N)=O)nc1C(=O)N[C@H](C(=O)N[C@H](C)[C@@H](O)[C@H](C)C(=O)N[C@H](C(=O)NCCc1nc(-c2nc(C(=O)NCCCNCCCCNC(=O)[C@H](CC(C)C)NC(=O)[C@@H](N)C(C)C)cs2)cs1)[C@@H](C)O)[C@@H](O[C@@H]1O[C@@H](CO)[C@@H](O)[C@@H](O)[C@@H]1O[C@H]1O[C@H](CO)[C@@H](O)[C@H](OC(N)=O)[C@@H]1O)c1c[nH]cn1`: the Kb with Calf thymus DNA is 423000. For the same molecule, the IC50 with BGC-823 is 870 nM; in assay [1] it was 1320 nM; in the assay with MDA-MB-435 it was 320 nM; in the assay on HL-60, 630 nM. Further, the shift in melting temperature (ΔTm) with Nucleic Acid came to 1.8 °C.
